Key:
Hs-578T = experiment: Antiproliferative activity against human Hs 578T cells after 48 hrs by WST8 assay; format: functional
MCF7 = experiment: Antiproliferative activity against human MCF7 cells after 48 hrs by WST8 assay; format: functional; conditions: for GI50: MCF7, 48 h

SMILES | GI50 (Hs-578T) [µM] | GI50 (MCF7) [µM] | Activity (Hs-578T) | Activity (MCF7)
CCCCCC[C@H](O)c1c(O)ccc(O)c1CO | > 100 | > 100 |  | 
CCCCC/C=C/c1c(O)ccc(O)c1CO | 59.7 | 61.5 | Dose-dependent effect | Dose-dependent effect
CCCCCC[C@@H](O)c1c(O)ccc(O)c1CO | > 100 | > 100 |  | 
